# Article PMC5007552, “The hVps34‐SGK3 pathway alleviates sustained PI3K/Akt inhibition by stimulating mTORC1 and tumour growth” (The EMBO Journal, 2016)
# “And” between values parts separate entries of the source, which are not always exact repeats. Equal values may be shown once.
# System: ZR-75-1 cells
# Assay: NanoString human kinome mRNA quantification
# Type: cell-based
# From the text: Human mRNAs were hybridised to NanoString human kinome and control code sets, then subjected to quantification using NanoString software. […] To permit data compaction, and simple kinome‐wide comparisons, the fold changes are log2 transformed. […] Cell pellets were resuspended at a concentration of ~6,500 cells/μl in RLT buffer (Qiagen). […] For total copy numbers, triplicate normalised count values were averaged, and to calculate fold induction, means were divided by triplicate mean values from matched DMSO controls. P‐values were calculated using unpaired t‐test (GraphPad Prism software) by employing treated and control count data for each kinase mRNA.
compound,measurement,setting,value
NC1(c2ccc(-c3nc4ccn5c(=O)[nH]nc5c4cc3-c3ccccc3)cc2)CCC1 [MK-2206],RYK normalised counts,"RYK mRNA, single replicates",1148.59 and 1139.68 and 1120.05
same,"SBK1 normalised counts, average","SBK1 mRNA, average of 3 replicates",361.503
same,SBK1 normalised counts,"SBK1 mRNA, single replicates",371.43 and 336.09 and 376.99
same,"SBK2 normalised counts, average","SBK2 mRNA, average of 3 replicates",1.323
same,SBK2 normalised counts,"SBK2 mRNA, single replicates",1.48 and 1 and 1.49
same,"SCYL1 normalised counts, average","SCYL1 mRNA, average of 3 replicates",556.557
same,SCYL1 normalised counts,"SCYL1 mRNA, single replicates",560.49 and 556.75 and 552.43
same,"SCYL2 normalised counts, average","SCYL2 mRNA, average of 3 replicates",1373.8
same,SCYL2 normalised counts,"SCYL2 mRNA, single replicates",1302.21 and 1441.13 and 1378.05
same,"SCYL3 normalised counts, average","SCYL3 mRNA, average of 3 replicates",629.833
same,SCYL3 normalised counts,"SCYL3 mRNA, single replicates",586.85 and 664.48 and 638.17
same,"SGK1 normalised counts, average","SGK1 mRNA, average of 3 replicates",34.7533
same,SGK1 normalised counts,"SGK1 mRNA, single replicates",45.11 and 34.64 and 24.51
same,"SGK2 normalised counts, average","SGK2 mRNA, average of 3 replicates",5.517
same,SGK2 normalised counts,"SGK2 mRNA, single replicates",6.93 and 3.37 and 6.25
same,"SGK3 normalised counts, average","SGK3 mRNA, average of 3 replicates",345.983
same,SGK3 normalised counts,"SGK3 mRNA, single replicates",345.97 and 349.13 and 342.85
same,"SGK110 normalised counts, average","SGK110 mRNA, average of 3 replicates",1
same,SGK110 normalised counts,"SGK110 mRNA, single replicates",1
same,"SGK223 normalised counts, average","SGK223 mRNA, average of 3 replicates",114.123
same,SGK223 normalised counts,"SGK223 mRNA, single replicates",115.1 and 115.43 and 111.84
same,SGK494 normalised counts,"SGK494 mRNA, single replicates",270.07 and 276.17
same,"SIK1 normalised counts, average","SIK1 mRNA, average of 3 replicates",97.7933
same,SIK1 normalised counts,"SIK1 mRNA, single replicates",92.37 and 96.32 and 104.69
same,"SIK2 normalised counts, average","SIK2 mRNA, average of 3 replicates",489.35
same,SIK2 normalised counts,"SIK2 mRNA, single replicates",465.05 and 503.76 and 499.24
same,"SIK3 normalised counts, average","SIK3 mRNA, average of 3 replicates",191.663
same,SIK3 normalised counts,"SIK3 mRNA, single replicates",213.27 and 183.2 and 178.52
same,"SLK normalised counts, average","SLK mRNA, average of 3 replicates",781.283
same,SLK normalised counts,"SLK mRNA, single replicates",777.73 and 819.98 and 746.14
same,SNRK normalised counts,"SNRK mRNA, single replicates",215.99 and 274.58
same,"SPEG normalised counts, average","SPEG mRNA, average of 3 replicates",35.4833
same,SPEG normalised counts,"SPEG mRNA, single replicates",26.93 and 40.72 and 38.8
same,"SRC normalised counts, average","SRC mRNA, average of 3 replicates",1093.13
same,SRC normalised counts,"SRC mRNA, single replicates",1115.87 and 1045.86 and 1117.67
same,"SRMS normalised counts, average","SRMS mRNA, average of 3 replicates",3.94
same,SRMS normalised counts,"SRMS mRNA, single replicates",1.48 and 2.5 and 7.84
same,"SRPK1 normalised counts, average","SRPK1 mRNA, average of 3 replicates",1401.66
same,SRPK1 normalised counts,"SRPK1 mRNA, single replicates",1439.46 and 1380.32 and 1385.2
same,"SRPK3 normalised counts, average","SRPK3 mRNA, average of 3 replicates",7.937
same,SRPK3 normalised counts,"SRPK3 mRNA, single replicates",8.75 and 11.19 and 3.87
same,"STK3 normalised counts, average","STK3 mRNA, average of 3 replicates",371.33
same,STK3 normalised counts,"STK3 mRNA, single replicates",336.89 and 406.46 and 370.64
same,"STK10 normalised counts, average","STK10 mRNA, average of 3 replicates",433.017
same,STK10 normalised counts,"STK10 mRNA, single replicates",449.6 and 416.89 and 432.56
same,"STK11 normalised counts, average","STK11 mRNA, average of 3 replicates",800.127
same,STK11 normalised counts,"STK11 mRNA, single replicates",804.09 and 773.94 and 822.35
same,"STK16 normalised counts, average","STK16 mRNA, average of 3 replicates",424.973
same,STK16 normalised counts,"STK16 mRNA, single replicates",430.51 and 422.97 and 421.44
same,"STK17A normalised counts, average","STK17A mRNA, average of 3 replicates",614.85
same,STK17A normalised counts,"STK17A mRNA, single replicates",623.21 and 605.4 and 615.94
same,"STK17B normalised counts, average","STK17B mRNA, average of 3 replicates",149.18
same,STK17B normalised counts,"STK17B mRNA, single replicates",155.09 and 144.1 and 148.35
same,"STK19 normalised counts, average","STK19 mRNA, average of 3 replicates",156.807
same,STK19 normalised counts,"STK19 mRNA, single replicates",145.09 and 157.13 and 168.2
same,STK24 normalised counts,"STK24 mRNA, single replicates",2291.16
same,"STK25 normalised counts, average","STK25 mRNA, average of 3 replicates",893.797
same,STK25 normalised counts,"STK25 mRNA, single replicates",868.63 and 899.91 and 912.85
same,"STK31 normalised counts, average","STK31 mRNA, average of 3 replicates",2.42
same,STK31 normalised counts,"STK31 mRNA, single replicates",2.39 and 1 and 3.87
same,"STK32A normalised counts, average","STK32A mRNA, average of 3 replicates",1.637
same,STK32A normalised counts,"STK32A mRNA, single replicates",1 and 1.63 and 2.28
same,"STK32B normalised counts, average","STK32B mRNA, average of 3 replicates",1.427
same,STK32B normalised counts,"STK32B mRNA, single replicates",1 (2×) and 2.28
same,"STK32C normalised counts, average","STK32C mRNA, average of 3 replicates",205.643
same,STK32C normalised counts,"STK32C mRNA, single replicates",188.41 and 219.8
same,"STK33 normalised counts, average","STK33 mRNA, average of 3 replicates",1.163
same,STK33 normalised counts,"STK33 mRNA, single replicates",1 (2×) and 1.49
same,"STK35 normalised counts, average","STK35 mRNA, average of 3 replicates",342.25
same,STK35 normalised counts,"STK35 mRNA, single replicates",336.89 and 343.04 and 346.82
same,"STK38L normalised counts, average","STK38L mRNA, average of 3 replicates",664.543
same,STK38L normalised counts,"STK38L mRNA, single replicates",674.11 and 657.53 and 661.99
same,"STK38 normalised counts, average","STK38 mRNA, average of 3 replicates",732.567
same,STK38 normalised counts,"STK38 mRNA, single replicates",697.74 and 733.98 and 765.98
same,"STK39 normalised counts, average","STK39 mRNA, average of 3 replicates",817.837
same,STK39 normalised counts,"STK39 mRNA, single replicates",763.19 and 842.57 and 847.75
same,Normalised counts (single replicate),VRK3 mRNA,720.47 and 725.29 and 752.49
same,Normalised counts (single replicate),WEE2 mRNA,1.48 and 1.63 and 1.49
same,Normalised counts (single replicate),WNK1 mRNA,3425.55 and 3529.59 and 3400.03
same,Normalised counts (single replicate),WNK2 mRNA,345.97 and 335.23 and 337.29
same,Normalised counts (single replicate),WNK3 mRNA,30.56 and 30.3 and 37.21
same,Normalised counts (single replicate),WNK4 mRNA,5.11 and 1 and 4.66
same,Normalised counts (single replicate),YES1 mRNA,2809.27 and 2957.96 and 2943.56
same,Normalised counts (single replicate),YSK4 mRNA,1 (2×) and 1.49
same,Normalised counts (single replicate),ZAK mRNA,35.11 and 50.28 and 49.91
same,Normalised counts (single replicate),ZAP70 mRNA,1 (2×) and 1.63
same,rank of SGK3 mRNA among AGC kinases,"ZR-75-1, DMSO vehicle 29th",12
